From paper PMC6742641, “Design, synthesis and biological evaluation of a series of CNS penetrant HDAC inhibitors structurally derived from amyloid-β probes” (Scientific Reports, 2019)
Where two headings read alike, the source gives them in different places.

Tests used:
[1] = tested on: SH-SY5Y cells; experiment: Cell proliferation (anti-proliferation) assay, MTS; format: cell-based, human; conditions: for GI50 / IC50: Homo sapiens; for GI50: SH-SY5Y neuroblastoma cell line, 72 h, mean ± SD (n = 4); for IC50: read-out: anti-proliferative activity IC50 against SH-SY5Y cell line
Protocol: SH-SY5Y cells were grown in DMEM with L-glutamin supplemented with streptomycin ([…]), penicillin (100 units/mL), and 10% fetal bovine serum (FBS). Cells were grown to confluence in a humidified atmosphere (37 °C, 5% CO2).
SH-SY5Y cells (1.5 × 10^3 cells/well) were seeded in a clear 96-well plate, the medium volume was brought to 100 µL, and the cells were allowed to attach overnight. The next day, various concentrations of compounds or DMSO were added to the wells. Cells were then incubated at 37 °C for 24, 48 and 72 h. Cell viability was determined using the Promega Cell Titer 96 Aqueous One Solution cell proliferation assay. Absorbance at 490 nm was read on Tecan Infinite F200 Pro plate reader, and values were expressed as percent of absorbance from cells incubated in DMSO alone.

[2] = PAMPA-BBB assay; format: in vitro ADME; conditions: for Papp at 4 h, 25 μM: PAMPA, read-out: Pe
Protocol: BBB-PAMPA was conducted by manufacturer’s instruction (pION Inc, MA, USA). […] Transmembrane side to donor part was coated with BBB lipid solution and add 200 μL acceptor buffer in upper part of PAMPA sandwich plate.

[3] = In vivo brain pharmacokinetic study; conditions: ICR male mice, IV, 2 mg/kg
Protocol: The study was approved by the Institutional Animal Care and Use of Committee of Daegu-Gyeongbuk Medical Innovation Foundation (DGMIF) and performed in accordance with protocols approved by the Institutional Animal Care and Use of Committee. […] Brain and plasma samples were collected at 0.5 and 1 h time points. Brain samples were homogenized at a 1:4 ratio of sample weight (g) to PBS volume (mL). Aliquots (20 μL) of brain homogenate were mixed with 180 μL of acetonitrile, vortexed and centrifuged at 15,000 rpm for 5 minutes at 4 °C. The resulting supernatants were used for LC-MS/MS analysis. Mice plasma samples were collected at 0.5 and 1 h time points. 180 μL of acetonitrile was added to 20 μL of plasma samples, vortexed and centrifuged at 15,000 rpm for 5 minutes at 4 °C.

[4] = tested on: Ac-α-tubulin; experiment: Western blot of acetylation status in SH-SY5Y cells; format: cell-based, human; conditions: 24 h, 1 μM
Protocol: Cells were seeded in 100 mm culture dishes (1 × 10^6 cells/dish), and allowed to attach overnight. Inhibitors were added at the concentrations as indicated and the cells were incubated for an additional 24 hours. For comparison, cells were also incubated with DMSO (0.5%) for 24 hours. Cells were harvested in ice-cold lysis buffer (23 mM Tris-HCl pH 7.6, 130 mM NaCl, 1% NP-40, 1% sodium deoxycholate, 0.1% SDS), and 30 µg of lysate per lane was separated by SDS-PAGE and followed by transferring to a PVDF membrane (Bio-Rad). The membrane was blocked with 5% skim milk in TBST, and then incubated with the corresponding antibody (Ac-α-tubulin, α-tubulin, Ac-Histone H3, Histone H3 or β-actin). After binding of an appropriate secondary antibody coupled to horseradish peroxidase, proteins were visualized by ECL chemiluminescence according to the instructions of the manufacturer (GE healthcare, USA).

[5] = 25 μM, pH 7.4, 4 h, 25 °C, mean ± SD, three independent experiments

Structure (SMILES): O=C(NO)c1ccc(-c2nc3ccccc3[nH]2)cc1 [Compound 5]
- GI50 [1]: 60 ± 1.5 µM
- IC50 ([1]; SH-SY5Y, Table 1 values IC50): 60 µM

Structure (SMILES): Cn1c(-c2ccc(C(=O)NO)cc2)nc2ccccc21 [Compound 6a]
- GI50 [1]: 58.3 ± 10.8 µM

Structure (SMILES): CCn1c(-c2ccc(C(=O)NO)cc2)nc2ccccc21 [Compound 6b]
- GI50 [1]: 38.1 ± 0.2 µM

Structure (SMILES): CCCn1c(-c2ccc(C(=O)NO)cc2)nc2ccccc21 [Compound 6c]
- GI50 [1]: 54.7 ± 0.95 µM

Structure (SMILES): CCCCn1c(-c2ccc(C(=O)NO)cc2)nc2ccccc21 [Compound 6d]
- GI50 [1]: 26.8 ± 1.35 µM
- IC50 ([1]; SH-SY5Y, Table 1 values IC50): 26.8 µM
- fold increase in potency from non-substituted analogue 5 ([1]; SH-SY5Y): ~2 fold

Structure (SMILES): O=C(NO)c1ccc(-c2nc3ccccc3o2)cc1 [Compound 9a]
- GI50 [1]: 25.7 ± 0.05 µM
- IC50 ([1]; SH-SY5Y, Table 1 values IC50): 25.7 µM
- fold less potent anti-proliferative activity than compound 9b ([1]; SH-SY5Y): 12 fold

Structure (SMILES): O=C(NO)c1cccc(-c2nc3ccccc3[nH]2)c1 [Compound 13]
- GI50 [1]: > 100 µM

Structure (SMILES): Cn1c(-c2cccc(C(=O)NO)c2)nc2ccccc21 [Compound 14a]
- GI50 [1]: > 100 µM

Structure (SMILES): CCn1c(-c2cccc(C(=O)NO)c2)nc2ccccc21 [Compound 14b]
- GI50 [1]: 28.2 ± 0.75 µM

Structure (SMILES): CCCn1c(-c2cccc(C(=O)NO)c2)nc2ccccc21 [Compound 14c]
- GI50 [1]: 34.6 ± 0.6 µM

Structure (SMILES): CCCCn1c(-c2cccc(C(=O)NO)c2)nc2ccccc21 [Compound 14d]
- GI50 [1]: 20.7 ± 1 µM

Structure (SMILES): O=C(NO)c1cccc(-c2nc3ccccc3o2)c1 [Compound 17a]
- GI50 [1]: 17.5 ± 0.35 µM

Structure (SMILES): O=C(NO)c1cccc(-c2nc3ccccc3s2)c1 [Compound 17b]
- GI50 [1]: 21.4 ± 1.65 µM

Structure (SMILES): CC(=O)[C@H]1CC[C@H]2[C@@H]3CCC4=CC(=O)CC[C@]4(C)[C@H]3CC[C@]12C [Progesterone]
- CNS +/− classification ([2]; PAMPA-BBB): CNS + (CNS + indicates (Pe > 10))
- Papp at 4 h, 25 μM [2, 5]: 35.52 ± 0.33 ×10⁻⁶ cm/s

Structure (SMILES): O=C(CCCCCCC(=O)Nc1ccccc1)NO [SAHA, suberoylanilide hydroxamic acid, reference compound]
- Brain concentration (ng/mL) 0.5 h ([3]; 0.5 h, n = 4): 14.5 ± 2.8 ng/mL
- Brain concentration (ng/mL) 1 h ([3]; 1 h, n = 4): BQL
- Kp at 0.5 h ([3]; mouse, brain/plasma, 0.5 h, read-out: Brain/plasma ratio 0.5 h): 0.4
- concentration at 0.5 h ([3]; mouse, brain, 0.5 h, n = 4, read-out: Brain concentration (ng/mL) 0.5 h): 14.5 ng/mL
- concentration at 0.5 h ([3]; mouse, plasma, 0.5 h, n = 4, read-out: Plasma concentration (ng/mL) 0.5 h): 39.2 ± 11.5 ng/mL
- concentration at 1 h ([3]; mouse, plasma, 1 h, n = 4, read-out: Plasma concentration (ng/mL) 1 h): 4.5 ± 2.7 ng/mL
- acetylation of α-tubulin at 1 μM, SAHA versus 9b [4]: induced more acetylation of α-tubulin than compound 9b
- IC50 ([1]; SH-SY5Y): 2.9 µM
- GI50 [1]: 2.9 ± 0.28 µM
- Pe (10^−6 cm/s) [2, 5]: 2.77 10^−6 cm/s
- Papp at 4 h, 25 μM [2, 5]: 2.77 ± 0.05 ×10⁻⁶ cm/s
